Measurements reported in PMC6556873, “Rapid Covalent-Probe Discovery by Electrophile-Fragment Screening” (Journal of the American Chemical Society, 2019).
Like-named read-outs stand apart in the source and are kept apart here.

What was measured:
[1] = target: T1, NUDT7 (Homo sapiens, UniProt P0C024); experiment: RapidFire MS acetyl-CoA hydrolysis, kobs vs [inhibitor]; type: biochemical
T1 construct: residues 14-235, E. coli, pNIC28-Bsa4, N-terminal His6 tag removed by TEV, construct 26672 Da

[2] = target: T1, NUDT7; experiment: RapidFire MS acetyl-CoA hydrolysis assay; type: biochemical
[3] = target: T1, NUDT7; experiment: RapidFire MS acetyl-CoA hydrolysis, kobs vs [inhibitor]; type: biochemical; details: covalent, inactivation constant KI from kinact/KI fit, 5 mM MgCl2, pH 7.5
[4] = target: T1, NUDT7; experiment: X-ray cocrystal structure; type: binding; details: covalent; C73
[5] = target: T2, BSA (Bos taurus, UniProt P02769); set-up: Intact protein LC/MS covalent labelling, fragments in pools of five, 200 uM each, 4 °C; details: 24 h, 4 °C, pool of five; 200 µM; covalent
T2 construct: gene ALB
T2 sequence (P02769 whole entry, the tested form may be a part): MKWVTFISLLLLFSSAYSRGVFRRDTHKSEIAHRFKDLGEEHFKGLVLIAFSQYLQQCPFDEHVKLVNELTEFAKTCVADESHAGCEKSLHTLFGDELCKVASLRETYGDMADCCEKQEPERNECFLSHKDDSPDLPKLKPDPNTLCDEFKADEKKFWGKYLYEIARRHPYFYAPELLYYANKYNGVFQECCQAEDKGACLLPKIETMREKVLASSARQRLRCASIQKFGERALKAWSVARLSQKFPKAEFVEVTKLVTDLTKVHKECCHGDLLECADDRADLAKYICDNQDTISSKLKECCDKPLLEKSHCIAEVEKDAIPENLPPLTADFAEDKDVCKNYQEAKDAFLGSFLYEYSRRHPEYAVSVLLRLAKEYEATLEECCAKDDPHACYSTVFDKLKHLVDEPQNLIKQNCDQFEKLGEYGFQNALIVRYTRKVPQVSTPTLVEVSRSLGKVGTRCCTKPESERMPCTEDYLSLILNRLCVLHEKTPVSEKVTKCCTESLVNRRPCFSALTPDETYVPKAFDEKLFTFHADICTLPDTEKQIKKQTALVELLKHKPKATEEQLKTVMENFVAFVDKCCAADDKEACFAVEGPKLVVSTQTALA

[6] = target: T1, NUDT7; set-up: Intact protein LC/MS covalent labelling, fragments in pools of five, 200 uM each, 4 °C; details: 24 h, 4 °C, pool of five; 200 µM; covalent
[7] = target: T3, OTUB2 (OTUB2A) (Homo sapiens, UniProt Q96DC9); set-up: Intact protein LC/MS covalent labelling, fragments in pools of five, 200 uM each, 4 °C; details: 24 h, 4 °C, pool of five; 200 µM; covalent
T3 construct: full length residues 1-234, E. coli BL21(DE3)-R3, His tag removed by TEV, construct 27312 Da
T3 sequence (Q96DC9 1-234): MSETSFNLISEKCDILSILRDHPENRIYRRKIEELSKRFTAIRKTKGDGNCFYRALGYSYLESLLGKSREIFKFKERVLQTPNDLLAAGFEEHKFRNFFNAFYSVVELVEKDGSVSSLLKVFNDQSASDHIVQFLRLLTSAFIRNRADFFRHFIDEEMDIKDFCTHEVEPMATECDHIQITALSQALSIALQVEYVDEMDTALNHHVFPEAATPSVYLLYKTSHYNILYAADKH

[8] = target: T4, PCAF (Homo sapiens, UniProt Q92831); set-up: Intact protein LC/MS covalent labelling, fragments in pools of five, 200 uM each, 4 °C; details: 24 h, 4 °C, pool of five; 200 µM; covalent
T4 construct: gene KAT2B
T4 sequence (Q92831 whole entry, the tested form may be a part): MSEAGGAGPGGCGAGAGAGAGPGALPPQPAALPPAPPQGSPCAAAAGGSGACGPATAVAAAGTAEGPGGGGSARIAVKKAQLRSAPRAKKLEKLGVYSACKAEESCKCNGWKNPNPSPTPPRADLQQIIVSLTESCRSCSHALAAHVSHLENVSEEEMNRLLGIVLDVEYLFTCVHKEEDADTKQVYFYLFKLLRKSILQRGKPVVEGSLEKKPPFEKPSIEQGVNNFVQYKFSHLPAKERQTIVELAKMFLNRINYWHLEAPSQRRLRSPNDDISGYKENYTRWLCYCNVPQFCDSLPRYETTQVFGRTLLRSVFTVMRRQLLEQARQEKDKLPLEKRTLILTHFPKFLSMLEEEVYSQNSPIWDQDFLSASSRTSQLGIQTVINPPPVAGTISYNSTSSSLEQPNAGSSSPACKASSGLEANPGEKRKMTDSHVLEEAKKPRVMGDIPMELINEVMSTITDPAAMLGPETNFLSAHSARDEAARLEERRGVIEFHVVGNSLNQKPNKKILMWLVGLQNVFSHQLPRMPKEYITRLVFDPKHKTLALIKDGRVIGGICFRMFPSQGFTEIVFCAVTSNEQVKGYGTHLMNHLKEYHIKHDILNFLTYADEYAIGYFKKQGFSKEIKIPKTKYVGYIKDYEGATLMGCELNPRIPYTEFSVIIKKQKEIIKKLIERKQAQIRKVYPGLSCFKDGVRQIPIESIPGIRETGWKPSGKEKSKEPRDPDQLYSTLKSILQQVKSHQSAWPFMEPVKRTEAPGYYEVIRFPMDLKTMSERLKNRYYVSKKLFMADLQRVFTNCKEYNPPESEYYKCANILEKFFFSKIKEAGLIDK

[9] = in vitro; set-up: species or system CCD841, HEK293; details: human, hb2 cells, read-out: HB-2 Cells Viability (%)
[10] = in vitro; set-up: species or system HB2, HEK293; details: human, ccd841 cells
[11] = in vitro; set-up: species or system HB2, CCD841; details: human, hek293 cells
[12] = target: T1, NUDT7; experiment: X-ray crystal structure, soak; details: noncovalent; putative substrate binding region
[13] = target: T3, OTUB2 (OTUB2A); experiment: intact protein LC/MS labeling; type: binding; details: covalent; 24 h, 4 °C
[14] = target: T3, OTUB2 (OTUB2A); experiment: intact protein LC/MS labeling; type: binding; details: covalent; 24 h, 4 °C; remark: listed apart in the source
[15] = target: T1, NUDT7; experiment: intact protein LC/MS labeling; type: binding; details: covalent; 24 h, 4 °C, 2 μM protein, pools of five, pH 7.5
[16] = target: T5, USP8 (Homo sapiens, UniProt P40818); experiment: intact protein LC/MS labeling; type: binding; details: covalent; promiscuous compound; 24 h, 4 °C, 2 μM protein, pools of five, pH 7.5
T5 construct: residues 705-1081, E. coli, produced as NUDT7 (His tag removed by TEV), construct 44429 Da
T5 sequence (P40818 705-1081): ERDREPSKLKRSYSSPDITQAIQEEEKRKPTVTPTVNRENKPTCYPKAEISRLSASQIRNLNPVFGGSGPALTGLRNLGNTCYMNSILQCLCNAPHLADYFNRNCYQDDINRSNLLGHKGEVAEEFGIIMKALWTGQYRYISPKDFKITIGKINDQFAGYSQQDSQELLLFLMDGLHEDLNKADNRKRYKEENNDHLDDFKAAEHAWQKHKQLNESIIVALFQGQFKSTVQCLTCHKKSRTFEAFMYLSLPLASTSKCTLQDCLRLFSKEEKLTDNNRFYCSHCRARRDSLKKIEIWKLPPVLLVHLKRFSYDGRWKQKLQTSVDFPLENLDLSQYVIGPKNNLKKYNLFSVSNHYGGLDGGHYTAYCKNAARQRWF

[17] = target: T6, NNMT (hNNMT) (Homo sapiens, UniProt P40261); experiment: intact protein LC/MS labeling; type: binding; details: covalent; promiscuous compound; 24 h, 4 °C, 2 μM protein, pools of five, pH 7.5
T6 construct: wild type, N-terminal His6 tag kept (no cleavage described), E. coli, construct 31248 Da
T6 sequence (P40261 1-264): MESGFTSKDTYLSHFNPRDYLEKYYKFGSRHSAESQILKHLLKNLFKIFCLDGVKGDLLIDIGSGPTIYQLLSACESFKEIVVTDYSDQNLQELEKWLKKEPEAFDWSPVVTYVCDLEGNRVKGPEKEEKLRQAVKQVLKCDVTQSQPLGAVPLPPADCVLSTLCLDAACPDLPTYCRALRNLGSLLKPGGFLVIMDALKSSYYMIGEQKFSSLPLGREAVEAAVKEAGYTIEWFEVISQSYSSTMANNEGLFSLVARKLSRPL

[18] = target: T6, NNMT (hNNMT); set-up: Intact protein LC/MS covalent labelling, fragments in pools of five, 200 uM each, 4 °C; details: 24 h, 4 °C, pool of five; 200 µM; covalent
[19] = target: T7, K-Ras^G12C (Homo sapiens, UniProt P01116, G12C, species not given); experiment: intact protein LC/MS labeling; type: binding; details: covalent; 24 h, 4 °C, 2 μM protein, pools of five, pH 8.0
T7 construct: gene KRAS; residues 1-169, recombinant, construct 19245 Da
T7 sequence (P01116 1-169 G12C): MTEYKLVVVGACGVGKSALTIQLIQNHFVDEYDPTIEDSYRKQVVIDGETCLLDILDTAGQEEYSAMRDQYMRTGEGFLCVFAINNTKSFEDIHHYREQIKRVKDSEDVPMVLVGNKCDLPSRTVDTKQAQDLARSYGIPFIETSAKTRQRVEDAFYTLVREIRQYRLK

T1 sequence (P0C024 14-235): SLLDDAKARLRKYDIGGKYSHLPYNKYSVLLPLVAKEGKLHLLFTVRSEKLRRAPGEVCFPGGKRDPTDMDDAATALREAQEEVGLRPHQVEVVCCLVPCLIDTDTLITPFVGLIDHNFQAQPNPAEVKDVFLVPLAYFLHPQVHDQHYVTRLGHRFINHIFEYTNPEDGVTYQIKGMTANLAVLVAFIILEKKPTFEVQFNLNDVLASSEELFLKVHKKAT

| Compound | BSA [5] | NUDT7 [6] | OTUB2 [7] | PCAF [8] | viability at 48 h, 10 µM [9] [%] | viability at 48 h, 10 µM [10] [%] | viability at 48 h, 10 µM [11] [%] | NNMT [18] | other results |
| --- | --- | --- | --- | --- | --- | --- | --- | --- | --- |
| O=C(Cc1cccc(C2CCCN2C(=O)CCl)c1)Nc1cccc(Cl)c1 (racemic) [NUDT7-COV-1] | – | – | – | – | – | – | – | – | kinact/KI [1]: 757 M⁻¹ s⁻¹; IC50 [2]: 1.1 µM; KI (inactivation) [3]: 13.2 µM |
| COc1cccc(C2CCCN2C(=O)CCl)c1 (racemic) [PCM-0102716] | 0 | 0.68 | 0.09 | 0 | 7.6 | 34.4 | 3.6 | – | X-ray cocrystal structure [4]: cocrystal structures of compounds PCM-0102951, PCM-0102558, and PCM-0102716 bound to NUDT7 |
| O=C(Cc1cccc(O)c1)Nc1cccc(Cl)c1 [NUDT7-REV-1] | – | – | – | – | – | – | – | – | X-ray crystal structure, soak [12]: soaked them into NUDT7 crystals, which yielded a structure in complex with compound NUDT7-REV-1 |
| O=C(CCl)NNC(=O)C(c1ccccc1)c1ccccc1 [OTUB2-COV-17] | – | – | – | – | – | – | – | – | % labeling at 100 μM [13]: 100% |
| O=C(CCl)NNC(=O)C1CC1c1ccc(Cl)cc1 (stereo not shown) [OTUB2-COV-22] | – | – | – | – | – | – | – | – | % labeling at 5 μM [14]: 55% |
| O=C(CCl)N1CCCC1c1ccc2c(c1)OCCO2 (stereo not shown) [PCM-0102298] | 0 | 1 | 0 | 0 | 5.3 | 21.6 | 4.5 | – | % labeling at 200 μM [15]: 100% |
| O=C(CCl)Nc1nc(-c2cc(F)ccc2F)cs1 [PCM-0102496] | 0 | 0.53 | 0 | 0 | 3.9 | 35.7 | 2.2 | 1 | % labeling at 200 μM [16]: > 50%; % labeling at 200 μM [17]: > 50% |
| O=C(CCl)N1CCCC1c1ccc2c(c1)OCCCO2 (stereo not shown) [PCM-0102512] | 0 | 0.88 | 0 | 0 | 8.3 | 19.7 | 3.8 | – | % labeling at 200 μM [15]: 88% |
| COc1ccc(C2CCCCCN2C(=O)CCl)cc1 (stereo not shown) [PCM-0102558] | 0 | 1 | 0 | 0 | 27.4 | 11 | 15.3 | – | kinact/KI [1]: 233 M⁻¹ s⁻¹ |
| Cl.O=C(CCl)N1CCN(Cc2ccc(Cl)cc2)CC1 [PCM-0102818] | 0 | 0 | 0.17 | 0 | 8.2 | 31.6 | 7.8 | 0.14 | % labeling at 200 μM [19]: 63% |
| COc1ccc(C2CCCN2C(=O)CCl)cc1 (stereo not shown) [PCM-0102938] | 0 | 1 | 0 | 0 | 12 | 24.3 | 6.4 | 0 | % labeling at 200 μM [15]: 100% |
| O=C(CCl)NC1(c2ccc3c(c2)OCCO3)CCCC1 [PCM-0102951] | 0 | 1 | 0 | 0 | 72.7 | 69.3 | 56.4 | – | X-ray cocrystal structure [4]: cocrystal structures of compounds PCM-0102951, PCM-0102558, and PCM-0102716 bound to NUDT7 |
| CN(Cc1cc(Br)cs1)C(=O)CCl [PCM-0103081] | 0 | 0 | 0 | 0 | 5.1 | 45.5 | 11.9 | 0 | – |
